According to EP0391644B1, “Aryl-substituted rhodanine derivatives” (ELI LILLY AND COMPANY, priority 1989, dated 1990):
Where “and” joins values, the source holds several entries; their conditions need not be identical. Identical values can stand only once.

Legend:
[1] = tested on: ischemia-induced brain damage in the hippocampal CA1 region; test: Stroke model in rats; assay type: in vivo, Male Wistar rats; details: mean ± standard error, scale 0 = no damage to 3 = severe damage of CA1 layer
Source text: Strokes were produced in rats by occluding the four arteries that supply blood to the brain according to the following procedure. Male Wistar rats were anesthetized with Metofane and placed into a stereotaxic instrument. A longitudinal incision was made on the dorsal surface of the neck. The neck muscles were reflected to expose the dorsal surface of the spinal column. The two vertebral arteries were exposed where they pass through the first cervical vertebra. Both arteries were permanently occluded by the application of electrocautery. After coagulation of the vertebral arteries, the rat was removed from the stereotaxic instrument and the surgical wound was sutured. Two longitudinal incisions were then made on the ventral surface of the neck. The two common carotid arteries were exposed and dissected free from surrounding nerves and connective tissue. An atraumatic clasp, fabricated mainly from silicon rubber tubing, was placed around each carotid artery in a manner such that the vessel was not traumatized or occluded. The surgical wounds were then closed. The atraumatic clasps were designed in such a manner that they could be tightened to occlude the carotid arteries by pulling on a small silastic thread that was allowed to protrude from the wound. Circulation to the brain through the carotids could be restored by relieving the tension on the silastic threads. After the surgery, the rats were allowed to recover for 24 hours.
On the day of testing, compounds were suspended in 2% acacia and were administered orally at various times before stroke induction. Strokes (cerebral ischemia) were induced by tightening the clasps around the carotids for a period of 30 minutes. During this time, rats in which strokes had successfully been produced lost the righting reflex and became unresponsive to stimuli. After 30 minutes of ischemia, tension on the clasps was removed and blood flow to the brain restored. Rats were again treated with compounds on the morning after the stroke. On the third day after the stroke the animals received an overdose of barbituate anesthetic, and the brain was perfused in situ with 10% neutral, buffered formalin. After perfusion with amounts of formalin adequate to fix the brain, the brains were removed and stored in 10% formalin until histological sections could be prepared.
One of the areas of the brain that is most susceptible to ischemia induced damage both in the rat and the human is the CA1 pyramidal cell layer of the hippocampus. In animals that remain unresponsive for the 30 minute period of ischemia, the CA1 pyramidal cell layer is completely destroyed. This layer of cells was examined microscopically in histological sections prepared from the hippocampus. Brain damage was rated according to the following scale: 0 = no damage, completely intact cell layer 1 = mild damage, one-third of CA1 layer dead 2 = moderate damage, two-thirds of CA1 layer dead 3 = severe damage, complete destruction of CA1 layer
Damage in 10-12 sections from each brain was assessed in order to obtain an accurate estimate of damage. An average damage score was calculated for each treatment group. Scores from treated groups were compared statistically with scores from control groups which received only the vehicle (2% acacia) that was used to suspend the compounds. The level of significance was determined using Student's "t-test".

[2] = tested on: adjuvant-induced arthritis; test: Developing Adjuvant-Induced Arthritis Test in Rats; assay type: in vivo, male Lewis-Wistar rats; details: Rattus norvegicus, po, 720 h, AUC of uninjected paw volumes, Days 16 through 30, read-out: % Inhibition of Uninjected Paw Volume Inflammation; for inhibition in vivo at 50 mg/kg: 50 mg/kg P.O. x 29
inflammation = test: Carrageenin Assay; assay type: in vivo; details: Rattus norvegicus, po; 50 mg/kg orally by gavage; carrageenin-injected hind paws of rats; read-out: Percent Inhibition
Procedure: The compounds were evaluated for antiinflammatory activity in the test method described by C.A. Winter, Proc. Soc. Exp. Biol. Med., 111, 544 (1962). In this test, inflammation is created by injecting carrageenin into the hind paws of rats. Test compounds are administered prior to injection to determine percent inhibition of the subsequent inflammation in comparison with control animals.

Dystrophic mice (dy/dy) = test: Muscular Dystrophy Animal Model; assay type: in vivo
Procedure: Dystrophic mice (dy/dy) were obtained from Jackson Laboratories after weaning (approximately 21 days) and treatment with the compounds shown in Table V was begun at the first sign of dystrophy. The compounds that were tested were administered in the diet and lifespan was measured during the course of treatment. The food and water sources were located in different parts of the cage requiring the animals to walk from the food source to the water source to survive.

[3] = 100 mg/kg given orally as a suspension in 2% acacia
[4] = 50 mg/kg given orally as a suspension in 2% acacia
[5] = 0.03 percent by weight of compound in diet

SMILES	Damage Score [1, 3]	inhibition in vivo at 50 mg/kg [2]	further results
Cc1cc(C=C2SCN(N(C)C)C2=O)cc(C(C)(C)C)c1O [Example 62, 5-{[3-(1,1-dimethylethyl)-4-hydroxy-5-methylphenyl]methylene}-3-dimethylamino-4-thiazolidinone]	1.2 ± 0.3 (p<0.05)	11.2%	
CC(C)(C)c1cc(C=C2SC(=S)N(C3CC3)C2=O)cc(C(C)(C)C)c1O [Example 18, 5-{[3,5-bis(1,1-dimethylethyl)-4-hydroxyphenyl]methylene}-3-cyclopropyl-2-thioxo-4-thiazolidinone]			inhibition in vivo at 50 mg/kg (inflammation): 22%
CC(C)(C)c1cc(C=C2C(=O)NC[S+]2[O-])cc(C(C)(C)C)c1O (stereo not drawn) [Example 23, 5-{[3,5-bis(1,1-dimethylethyl)-4-hydroxyphenyl]methylene}-4-thiazolidinone, 1-oxide]	2.2 ± 0.4	28%	
CNCCN1CSC(=Cc2cc(C(C)(C)C)c(O)c(C(C)(C)C)c2)C1=O [Example 28, 5-{[3,5-bis(1,1-dimethylethyl)-4-hydroxyphenyl]methylene}-3-[2-(methylamino)ethyl]-4-thiazolidinone]		72%	Damage Score [1, 4]: 1.0 ± 0.4 (p=0.009)
CC(C)(C)c1cc(C=C2CCNC2=O)cc(C(C)(C)C)c1O [Example 69, 3-{[3,5-bis(1,1-dimethylethyl)-4-hydroxyphenyl]methylene}-2-pyrrolidinone]			Damage Score [1, 4]: 0.98 ± 0.42 (p=0.037)
CCCCN1CSC(=Cc2cc(C(C)(C)C)c(O)c(C(C)(C)C)c2)C1=O [Example 16, 5-{[3,5-bis(1,1-dimethylethyl)-4-hydroxyphenyl]methylene}-3-butyl-4-thiazolidinone]		18%	inhibition in vivo at 50 mg/kg (inflammation): 40%
CCN1CSC(=Cc2cc(C(C)(C)C)c(O)c(C(C)(C)C)c2)C1=O [Example 14, 5-{[3,5-Bis(1,1-dimethylethyl)-4-hydroxyphenyl]methylene}-3-ethyl-4-thiazolidinone]		6%	inhibition in vivo at 50 mg/kg (inflammation): 43%
COCCN1CSC(=Cc2cc(C(C)(C)C)c(O)c(C(C)(C)C)c2)C1=O [Example 7, 5-{[3,5-bis(1,1-dimethylethyl)-4-hydroxyphenyl]methylene}-3-(2-methoxyethyl)-4-thiazolidinone]	2.5 ± 0.2	30%	
CN1CCC(=Cc2cc(C(C)(C)C)c(O)c(C(C)(C)C)c2)C1=O [Example 70, 3-{[3,5-bis(1,1-dimethylethyl)-4-hydroxyphenyl]-methylene}-1-methyl-2-pyrrolidinone]	0.7 ± 0.4 (p=0.039)		
CN(C)N1CSC(=Cc2cc(C(C)(C)C)c(O)c(C(C)(C)C)c2)C1=O [Example 21, 5-{[3,5-bis(1,1-dimethylethyl)-4-hydroxyphenyl]methylene}-3-dimethylamino-4-thiazolidinone]		81%	Damage Score [1, 4]: 1.9 ± 0.3; Average Life Span (Dystrophic mice (dy/dy); [5]): 151 days
CN(C)N1C[S+]([O-])C(=Cc2cc(C(C)(C)C)c(O)c(C(C)(C)C)c2)C1=O (stereo not drawn) [Example 22, 5-{[3,5-bis(1,1-dimethylethyl)-4-hydroxyphenyl]methylene}-3-(dimethylamino)-4-thiazolidinone, 1-oxide]	2.3 ± 0.3	1%	
CC(C)(C)c1cc(C=C2SCN(CCO)C2=O)cc(C(C)(C)C)c1O [Example 35, 5-{[3,5-bis(1,1-dimethylethyl)-4-hydroxyphenyl]methylene}-3-(2-hydroxyethyl)-4-thiazolidinone]	0.9 ± 0.4 (p<0.001)		Average Life Span (Dystrophic mice (dy/dy); 0.05 percent by weight of compound in diet): 107 days; inhibition in vivo at 75 mg/kg ([2]; 75 mg/kg P.O. x 29): 86%
CN1CS(=O)(=O)C(=Cc2cc(C(C)(C)C)c(O)c(C(C)(C)C)c2)C1=O [Example 13, 5-{[3,5-bis(1,1-dimethylethyl)-4-hydroxyphenyl]methylene}-3-methyl-4-thiazolidinone, 1,1-dioxide]	2.1 ± 0.3	8.7%	
CC(C)(C)c1cc(C=C2SCN(CC(N)=O)C2=O)cc(C(C)(C)C)c1O [Example 5, 5-{[3,5-bis(1,1-dimethylethyl)-4-hydroxyphenyl]methylene}-4-oxo-3-thiazolidineacetamide]	1.8 ± 0.4 (p=0.05)	7%	
CN1C[S+]([O-])C(=Cc2cc(C(C)(C)C)c(O)c(C(C)(C)C)c2)C1=O (stereo not drawn) [Example 12, 5-{[3,5-bis(1,1-dimethylethyl)-4-hydroxyphenyl]methylene}-3-methyl-4-thiazolidinone, 1-oxide]	1.8 ± 0.4	4.8%	
CSCCN1CSC(=Cc2cc(C(C)(C)C)c(O)c(C(C)(C)C)c2)C1=O [Example 6, 5-{[3,5-bis(1,1-dimethylethyl)-4-hydroxyphenyl]methylene}-3-[2-(methylthio)ethyl]-4-thiazolidinone]	2.5 ± 0.2		
Cc1cc(C=C2SCN(C)C2=O)cc(C(C)(C)C)c1O [Example 61, 5-{[3-(1,1-dimethylethyl)-4-hydroxy-5-methylphenyl]methylene}-3-methyl-4-thiazolidinone]		5.3%	Damage Score [1, 4]: 1.7 ± 0.3 (p=0.03)
CN1CSC(Cc2cc(C(C)(C)C)c(O)c(C(C)(C)C)c2)C1=O (stereo not drawn) [Example 11, 5-{[3,5-bis(1,1-dimethylethyl)-4-hydroxyphenyl]methyl}-3-methyl-4-thiazolidinone]	2.1 ± 0.3	19.7%	
COc1ccc(CN2CSC(=Cc3cc(C(C)(C)C)c(O)c(C(C)(C)C)c3)C2=O)cc1 [Example 36, 5-{[3,5-bis(1,1-dimethylethyl)-4-hydroxyphenyl]methylene}-3-[(4-methoxyphenyl)methyl]-4-thiazolidinone]	2.3 ± 0.4		
CC(C)(C)c1cc(C=C2SC(=O)NC2=O)cc(C(C)(C)C)c1O [Example 67, 5-{[3,5-bis(1,1-dimethylethyl)-4-hydroxyphenyl]methylene}-2,4-thiazolidinedione]	1.4 ± 0.3 (p<0.05)		
CC(C)(C)c1cc(C=C2SCN(CC#N)C2=O)cc(C(C)(C)C)c1O [Example 38, 5-{[3,5-bis(1,1-dimethylethyl)-4-hydroxyphenyl]methylene}-4-oxo-3-thiazolidineacetonitrile]		1.8%	Damage Score ([1]; 200 mg/kg given orally as a suspension in 2% acacia): 1.6 ± 0.04
CN1CSC(=Cc2cc(C(C)(C)C)c(O)c(C(C)(C)C)c2)C1=O [Example 10, 5-{[3,5-bis(1,1-dimethylethyl)-4-hydroxyphenyl]methylene}-3-methyl-4-thiazolidinone]	0.75 ± 0.26 (p<0.02)	57%	Average Life Span (Dystrophic mice (dy/dy); [5]): 93 days and 112 days and 90 days and 80 days and 110 days; Average Life Span (Dystrophic mice (dy/dy); 0.08 percent by weight of compound in diet): 45 days and 67 days; Average Life Span (Dystrophic mice (dy/dy); 0.3 percent by weight of compound in diet): 83 days
CC(=O)OCCN1CSC(=Cc2cc(C(C)(C)C)c(O)c(C(C)(C)C)c2)C1=O [Example 26, 5-{[3,5-bis(1,1-dimethylethyl)-4-hydroxyphenyl]-methylene}-3-[2-(acetyloxy)ethyl]-4-thiazolidinone]	1.9 ± 0.4	30.4%	
